Experimental data taken from patent publication US20230064983A1 (priority 2020, published 2023).
Values joined by “and” are separate entries in the source; they are usually repeats but may differ in a detail not shown here. Equal values may be shown once. Read-outs that look alike come from different tables or passages of the source.

Experiments:
[1] = molecular target: T1, EGFR with insertion SVD between D770 and N771 (mutEGFR D770_N771insSVD) (Homo sapiens, UniProt P00533, DUP768-770); test: Exon20-Mutant-EGFR(D770_N771insSVD) kinase assay (TR-FRET); type: biochemical; settings: 2 mM ATP, Table 2
T1 construct: amino acids R669 to A1210; made in house; host or cells: Sf9 insect cells (baculovirus)

Bub1 = molecular target: T2, Bub1 (Homo sapiens, UniProt O43683); test: Bub1 high ATP kinase assay (TR-FRET); type: biochemical; settings: 2 mM ATP, Table 3
T2 construct: catalytic domain of human Bub1 (amino acids 704-1085); His6 (N); made in house; host or cells: insect cells (Hi5)
How it was run: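 Enzyme was His6-tagged human Bub1 catalytic domain (aa 704-1085) from Hi5 insect cells, typically about 200 ng/ml, with a biotinylated peptide substrate at high ATP. Reaction ran 60 min at 22 °C, then was stopped with EDTA. Phosphopeptide was detected by TR-FRET (anti-phosphoserine antibody, Eu-labelled anti-mouse IgG, streptavidin-XL665), read as the 665/620 nm emission ratio.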

[2] = molecular target: Ba/F3-EGFR-D770_N771insSVD cells (Homo sapiens, UniProt P00533, DUP768-770, cells depend on it); test: Ba/F3 cell survival assay, EGFR D770_N771insSVD; type: cell-based; settings: Cell Titer-Glo, 48 h, without IL-3; Table 4; read-out: BA/F3 (insSVD) IC50
Ba/F3-EGFR-WT cells = Ba/F3-EGFR-WT cells (Homo sapiens, UniProt P00533); test: Ba/F3 cell survival assay, wild type EGFR; type: cell-based; settings: Cell Titer-Glo, 48 h, with 10 ng/mL EGF; Table 4; read-out: BA/F3 (wild type) IC50
[3] = Bub1 high ATP (2 mM) IC50, TR-FRET

T1 sequence (P00533 other isoform, or with tags, fused parts or gaps DUP768-770): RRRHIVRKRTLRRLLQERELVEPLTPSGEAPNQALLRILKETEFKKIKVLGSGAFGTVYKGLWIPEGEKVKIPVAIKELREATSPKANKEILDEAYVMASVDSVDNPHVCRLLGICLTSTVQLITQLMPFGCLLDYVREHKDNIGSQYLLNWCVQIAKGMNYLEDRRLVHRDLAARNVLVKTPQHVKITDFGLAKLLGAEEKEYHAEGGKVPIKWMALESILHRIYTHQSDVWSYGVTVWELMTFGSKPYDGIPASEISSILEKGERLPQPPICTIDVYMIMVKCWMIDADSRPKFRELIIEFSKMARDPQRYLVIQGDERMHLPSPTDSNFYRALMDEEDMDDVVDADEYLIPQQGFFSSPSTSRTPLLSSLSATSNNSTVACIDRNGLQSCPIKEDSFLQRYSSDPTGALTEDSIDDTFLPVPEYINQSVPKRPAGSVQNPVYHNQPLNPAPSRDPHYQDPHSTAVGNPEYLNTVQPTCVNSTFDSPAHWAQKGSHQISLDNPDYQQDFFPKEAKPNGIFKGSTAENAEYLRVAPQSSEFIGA
Ba/F3-EGFR-D770_N771insSVD cells, sequence (P00533 with tags, fused parts or gaps DUP768-770): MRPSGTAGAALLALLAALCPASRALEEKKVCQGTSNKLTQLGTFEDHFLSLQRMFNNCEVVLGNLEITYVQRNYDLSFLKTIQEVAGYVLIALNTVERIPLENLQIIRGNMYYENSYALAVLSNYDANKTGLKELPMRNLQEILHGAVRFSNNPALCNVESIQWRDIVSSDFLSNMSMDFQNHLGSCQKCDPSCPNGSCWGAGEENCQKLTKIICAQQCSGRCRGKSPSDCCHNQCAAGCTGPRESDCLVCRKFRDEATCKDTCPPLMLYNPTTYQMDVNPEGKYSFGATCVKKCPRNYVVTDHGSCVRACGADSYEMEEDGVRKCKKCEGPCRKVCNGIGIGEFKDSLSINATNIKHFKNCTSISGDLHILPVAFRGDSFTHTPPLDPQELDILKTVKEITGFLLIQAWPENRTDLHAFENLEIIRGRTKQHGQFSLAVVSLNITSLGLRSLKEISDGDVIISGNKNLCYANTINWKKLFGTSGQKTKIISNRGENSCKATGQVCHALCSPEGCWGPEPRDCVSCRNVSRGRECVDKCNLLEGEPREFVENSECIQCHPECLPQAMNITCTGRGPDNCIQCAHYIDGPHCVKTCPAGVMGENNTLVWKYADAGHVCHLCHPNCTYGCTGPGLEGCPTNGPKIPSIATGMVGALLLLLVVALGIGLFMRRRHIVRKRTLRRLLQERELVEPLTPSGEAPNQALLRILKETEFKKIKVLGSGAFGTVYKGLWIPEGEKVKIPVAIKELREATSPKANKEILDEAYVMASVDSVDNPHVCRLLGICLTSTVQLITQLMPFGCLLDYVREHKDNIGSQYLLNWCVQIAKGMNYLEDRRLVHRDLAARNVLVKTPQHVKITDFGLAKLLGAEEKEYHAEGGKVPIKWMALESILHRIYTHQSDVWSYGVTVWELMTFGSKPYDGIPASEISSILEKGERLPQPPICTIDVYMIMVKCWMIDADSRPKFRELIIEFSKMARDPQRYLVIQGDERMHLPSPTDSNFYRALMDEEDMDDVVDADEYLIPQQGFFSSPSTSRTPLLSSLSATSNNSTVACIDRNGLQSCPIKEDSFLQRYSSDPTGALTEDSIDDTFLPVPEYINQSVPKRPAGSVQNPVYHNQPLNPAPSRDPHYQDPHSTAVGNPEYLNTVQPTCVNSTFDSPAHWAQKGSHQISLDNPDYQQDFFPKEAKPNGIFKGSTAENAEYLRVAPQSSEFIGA
Ba/F3-EGFR-WT cells, sequence (P00533 whole entry, looked up, change not shown): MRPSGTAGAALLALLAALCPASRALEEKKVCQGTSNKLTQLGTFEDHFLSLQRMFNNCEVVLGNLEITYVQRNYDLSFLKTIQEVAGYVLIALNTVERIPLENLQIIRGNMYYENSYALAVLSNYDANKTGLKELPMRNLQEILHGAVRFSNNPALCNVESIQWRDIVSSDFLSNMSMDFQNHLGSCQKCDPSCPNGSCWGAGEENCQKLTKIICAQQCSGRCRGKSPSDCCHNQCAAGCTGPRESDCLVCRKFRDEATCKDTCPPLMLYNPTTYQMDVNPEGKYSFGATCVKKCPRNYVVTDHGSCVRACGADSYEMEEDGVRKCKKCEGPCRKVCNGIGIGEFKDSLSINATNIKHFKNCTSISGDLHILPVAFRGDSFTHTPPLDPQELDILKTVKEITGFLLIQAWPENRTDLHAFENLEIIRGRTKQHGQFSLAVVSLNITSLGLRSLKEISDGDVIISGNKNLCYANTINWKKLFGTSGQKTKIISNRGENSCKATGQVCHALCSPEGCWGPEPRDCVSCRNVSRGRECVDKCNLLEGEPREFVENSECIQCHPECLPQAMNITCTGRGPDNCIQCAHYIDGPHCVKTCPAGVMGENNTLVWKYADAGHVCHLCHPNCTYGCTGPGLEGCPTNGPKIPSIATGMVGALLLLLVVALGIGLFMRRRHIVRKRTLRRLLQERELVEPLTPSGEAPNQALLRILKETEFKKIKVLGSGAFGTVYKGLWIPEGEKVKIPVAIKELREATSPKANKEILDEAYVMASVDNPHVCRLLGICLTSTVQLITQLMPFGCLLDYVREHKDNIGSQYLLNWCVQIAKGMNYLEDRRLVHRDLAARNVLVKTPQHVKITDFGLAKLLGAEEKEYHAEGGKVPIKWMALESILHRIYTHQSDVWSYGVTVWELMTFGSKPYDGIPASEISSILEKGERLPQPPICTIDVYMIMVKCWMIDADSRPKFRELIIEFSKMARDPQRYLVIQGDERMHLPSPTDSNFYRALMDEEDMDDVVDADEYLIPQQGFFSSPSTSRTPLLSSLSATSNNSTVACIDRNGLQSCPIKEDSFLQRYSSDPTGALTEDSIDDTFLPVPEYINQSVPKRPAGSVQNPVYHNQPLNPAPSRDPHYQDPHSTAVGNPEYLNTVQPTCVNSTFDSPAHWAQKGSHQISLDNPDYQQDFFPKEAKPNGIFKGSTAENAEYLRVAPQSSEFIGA
T2 sequence (O43683 704-1085): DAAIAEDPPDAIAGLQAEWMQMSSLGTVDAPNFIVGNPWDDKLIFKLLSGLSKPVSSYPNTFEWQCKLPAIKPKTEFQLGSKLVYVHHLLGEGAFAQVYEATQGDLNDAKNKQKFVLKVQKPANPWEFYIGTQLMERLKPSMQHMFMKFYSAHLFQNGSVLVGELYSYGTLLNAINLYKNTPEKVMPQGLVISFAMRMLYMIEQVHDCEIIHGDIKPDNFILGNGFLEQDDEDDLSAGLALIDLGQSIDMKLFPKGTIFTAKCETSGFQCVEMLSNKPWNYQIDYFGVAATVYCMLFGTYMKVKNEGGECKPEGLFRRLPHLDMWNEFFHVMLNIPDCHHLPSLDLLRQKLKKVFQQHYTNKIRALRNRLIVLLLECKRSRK

SMILES | mutEGFR (D770_N771insSVD) kinase assay IC50 [1] [nM] | IC50 (Bub1; [3]) | GI50 [2] [nM] | GI50 (Ba/F3-EGFR-WT cells) [nM] | IC50 (Bub1; read-out: Bub1 high ATP (2 mM) IC50, TR-FRET) [nM]
COc1c(Cl)cccc1Nc1c(-c2ccncc2OCCC(C)OC)[nH]c2c1C(=O)N[C@H](C)C2 (mixture of isomers) [Example 120, (6R)-3-(3-chloro-2-methoxy-anilino)-2-[3-(3-methoxybutoxy)-4-pyridyl]-6-methyl-1,5,6,7-tetrahydropyrrolo[3,2-c]pyridin-4-one] | 0.0901 | 1480 nM | 31.1 | 358 | 
Cc1c(Cl)cccc1Nc1c(-c2ccncc2OC[C@@H]2CCCO2)[nH]c2c1C(=O)NCC2C (single isomer, unassigned) [Example 60] | 0.603 | 1620 nM | 175 | 1070 | 
COc1c(Cl)cccc1Nc1c(-c2ccncc2OCC2COCCO2)[nH]c2c1C(=O)NCC2C (centres unmarked) [Example 33, 3-(3-chloro-2-methoxy-anilino)-2-[3-(1,4-dioxan-2-ylmethoxy)-4-pyridyl]-7-methyl-1,5,6,7-tetrahydropyrrolo[3,2-c]pyridin-4-one] | 0.201 | 5160 nM | 73.1 | 844 | 
COc1c(Cl)cccc1Nc1c(-c2ccncc2OCC2OCCC2(F)F)[nH]c2c1C(=O)N[C@H](C)C2 (mixture of isomers) [Example 71, (6R)-3-(3-chloro-2-methoxy-anilino)-2-{3-[(3,3-difluorotetrahydrofuran-2-yl)methoxy]-4-pyridyl}-6-methyl-1,5,6,7-tetrahydropyrrolo[3,2-c]pyridin-4-one] | 0.186 | 5740 nM | 42.9 | 731 | 
COc1c(Cl)cccc1Nc1c(-c2ccncc2OCC2CCCCN2C)[nH]c2c1C(=O)N[C@H](C)C2 (mixture of isomers) [Example 83, (6R)-3-(3-chloro-2-methoxy-anilino)-6-methyl-2-{3-[(1-methyl-2-piperidyl)methoxy]-4-pyridyl}-1,5,6,7-tetrahydropyrrolo[3,2-c]pyridin-4-one] | 0.849 | > 20000 nM | 24.6 | 669 | 
COc1c(Cl)cccc1Nc1c(-c2ccncc2OCC2COC(C)(C)CO2)[nH]c2c1C(=O)NCC2C (single isomer, unassigned) [Example 95, 3-(3-chloro-2-methoxy-anilino)-2-[3-[(5,5-dimethyl-1,4-dioxan-2-yl)methoxy]-4-pyridyl]-7-methyl-1,5,6,7-tetrahydropyrrolo[3,2-c]pyridin-4-one] | 0.504 |  | 14.9 | 415 | > 20000
Cc1c(Cl)cccc1Nc1c(-c2ccncc2OC[C@@H]2CN(C)CCO2)[nH]c2c1C(=O)N[C@H](C)C2 [Example 107, (6R)-3-(3-chloro-2-methylanilino)-6-methyl-2-(3-{[(2S)-4-methylmorpholin-2-yl]methoxy}pyridin-4-yl)-1,5,6,7-tetrahydro-4H-pyrrolo[3,2-c]pyridin-4-one] | 0.115 | > 20000 nM | 25 | 546 | 
COc1c(Cl)cccc1Nc1c(-c2ccncc2OCC2CCCCO2)[nH]c2c1C(=O)N[C@H](C)C2 (single isomer, unassigned) [Example 28] | 0.139 | 9720 nM | 8.33 | 189 | 
COc1c(Cl)cccc1Nc1c(-c2ccncc2OCC2COCCO2)[nH]c2c1C(=O)NCC2C (single isomer, unassigned) [Example 37, 3-(3-chloro-2-methoxy-anilino)-2-[3-(1,4-dioxan-2-ylmethoxy)-4-pyridyl]-7-methyl-1,5,6,7-tetrahydropyrrolo[3,2-c]pyridin-4-one] | 0.318 | 2870 nM | 149 | 1090 | 
COc1c(Cl)cccc1Nc1c(-c2ccncc2OCC2(C)CCO2)[nH]c2c1C(=O)NCC2CCO (single isomer, unassigned) [Example 21, 3-(3-chloro-2-methoxyanilino)-7-(2-hydroxyethyl)-2-{3-[(2-methyloxetan-2-yl)methoxy]pyridin-4-yl}-1,5,6,7-tetrahydro-4H-pyrrolo[3,2-c]pyridin-4-one] | 0.473 | > 20000 nM | 67.9 | 943 | 
COc1c(Cl)cccc1Nc1c(-c2ccncc2OC[C@@H]2CCCO2)[nH]c2c1C(=O)N[C@H]1CCC[C@@H]21 [Example 57, (5aS,8aR)-3-(3-chloro-2-methoxyanilino)-2-(3-{[(2S)-oxolan-2-yl]methoxy}pyridin-4-yl)-5,5a,6,7,8,8a-hexahydrocyclopenta[b]pyrrolo[2,3-d]pyridin-4(1)-one] | 0.246 | 281 nM | 195 | 1710 | 
C[C@@H]1Cc2[nH]c(-c3ccncc3OC[C@@H]3CCCO3)c(Nc3cccc(F)c3CC(F)F)c2C(=O)N1 [Example 63, (6R)-3-[2-(2,2-difluoroethyl)-3-fluoroanilino]-6-methyl-2-(3-{[(2S)-oxolan-2-yl]methoxy}pyridin-4-yl)-1,5,6,7-tetrahydro-4H-pyrrolo[3,2-c]pyridin-4-one] | 0.211 | 14100 nM | 117 | 1170 | 
COc1c(Cl)cccc1Nc1c(-c2ccncc2OCC2COC(C)(C)CO2)[nH]c2c1C(=O)N[C@H](C)C2 (single isomer, unassigned) [Example 79] | 0.455 | 17300 nM and > 20000 nM | 151 | 1910 | 
COc1c(Cl)cccc1Nc1c(-c2ccncc2OCC2CCCCO2)[nH]c2c1C(=O)NCC2C (centres unmarked) [Example 44, 3-(3-chloro-2-methoxy-anilino)-7-methyl-2-[3-(tetrahydropyran-2-ylmethoxy)-4-pyridyl]-1,5,6,7-tetrahydropyrrolo[3,2-c]pyridin-4-one] | 0.195 | 6450 nM | 40.5 | 594 | 
COc1c(Cl)cccc1Nc1c(-c2ccncc2OC[C@@H]2COCCN2C)[nH]c2c1C(=O)N[C@H](C)C2 [Example 93, (6R)-3-(3-chloro-2-methoxyanilino)-6-methyl-2-(3-{[(3S)-4-methylmorpholin-3-yl]methoxy}pyridin-4-yl)-1,5,6,7-tetrahydro-4H-pyrrolo[3,2-c]pyridin-4-one] | 0.4 | 5420 nM | 8.67 | 254 | 
COc1c(Cl)cccc1Nc1c(-c2ccncc2OCC2COC(C)(C)CO2)[nH]c2c1C(=O)NC1(CC1)C2 (single isomer, unassigned) [Example 133, 3′-(3-chloro-2-methoxyanilino)-2′-(3-{[5,5-dimethyl-1,4-dioxan-2-yl]methoxy}pyridin-4-yl)-1′,7′-dihydrospiro[cyclopropane-1,6′-pyrrolo[3,2-c]pyridin]-4′(5′H)-one] | 0.341 | 1650 nM | 22.2 | 484 | 
COc1c(Cl)cccc1Nc1c(-c2ccncc2OCC(C)OC)[nH]c2c1C(=O)N[C@H](C)C2 (mixture of isomers) [Example 80, (6R)-3-(3-chloro-2-methoxy-anilino)-2-[3-(2-methoxypropoxy)-4-pyridyl]-6-methyl-1,5,6,7-tetrahydropyrrolo[3,2-c]pyridin-4-one] | 0.131 | 2670 nM | 19.9 | 628 | 
COc1c(Cl)cccc1Nc1c(-c2ccncc2OCC[C@@H]2CCCO2)[nH]c2c1C(=O)N[C@H](C)C2 [Example 92, (6R)-3-(3-chloro-2-methoxyanilino)-6-methyl-2-(3-{2-[(2S)-oxolan-2-yl]ethoxy}pyridin-4-yl)-1,5,6,7-tetrahydro-4H-pyrrolo[3,2-c]pyridin-4-one] | 0.243 | 1980 nM | 20.2 | 519 | 
CCc1c(Cl)cccc1Nc1c(-c2ccncc2OC[C@@H]2CN(C)CCO2)[nH]c2c1C(=O)N[C@H](C)C2 [Example 91, (6R)-3-(3-chloro-2-ethylanilino)-6-methyl-2-(3-{[(2S)-4-methylmorpholin-2-yl]methoxy}pyridin-4-yl)-1,5,6,7-tetrahydro-4H-pyrrolo[3,2-c]pyridin-4-one] | 0.334 | > 20000 nM | 30.2 | 556 | 
COc1c(Cl)cccc1Nc1c(-c2ccncc2OCC2CCCCO2)[nH]c2c1C(=O)NCC2C (single isomer, unassigned) [Example 47, 3-(3-chloro-2-methoxy-anilino)-7-methyl-2-[3-(tetrahydropyran-2-ylmethoxy)-4-pyridyl]-1,5,6,7-tetrahydropyrrolo[3,2-c]pyridin-4-one] | 0.667 | 7600 nM | 106 | 1990 | 
